Results as given in patent publication US20250270190A1, “KIT INHIBITORS” (BLUEPRINT MEDICINES CORPORATION, priority 2022, published 2025).
Counter-ions that a name gives are not always drawn.

Molecular target: T1, c-kit autophosphorylation (Phospho c-Kit Tyr721) in HMC 1.1 (exon 11/13) cells, V654A (Homo sapiens, UniProt P10721, V560G/V654A)
T1 construct: endogenous in cells; host or cells: HMC 1.1 (exon 11/13) cells
Assay: pKIT Meso Scale Discovery (MSD) assay, inhibition of autophosphorylation of KIT, HMC1.1_V654A
Type: cell-based
Settings: Table 1, cell line not named for Table 1, b1056 names pKIT HMC1.1_V654A, read-out: Code (IC50 for inhibition of autophosphorylation of KIT, pKIT MSD assay)
Text: In this MSD assay, specific capture antibodies for the analytes were coated in arrays in each well of a 96-well carbon electrode plate surface. The detection system used SULFO-TAG™ labels that emit light upon electrochemical stimulation initiated at the electrode surfaces of the […] and MULTI-SPOT® plates. The electrical stimulation was decoupled from the output signal, which was light and generated assays with minimal background. The goal of this assay was to assess the percent inhibition of autophosphorylation of c-kit in cells when treated with compounds of the disclosure in a dose-dependent manner.
HMC1.1 cells were maintained in IMDM media supplemented with 20% Calf Serum with Iron and 100 units/mL Penicillin-Streptomycin and grown in a 37° C. humidified tissue culture incubator. HMC1.1 cells were passaged by 1:5 dilution into fresh IMDM media supplemented with 20% Calf Serum with Iron and 100 units/mL Penicillin-Streptomycin every 5-7 days and were discarded after 20 passages.
Seeding was performed as follows: HMC cells were brought to 1×10^6 cells/mL in fresh phenol red free, serum-free, iron-free IDM media with Pen/Strep; cells were seeded/plated into respective U-bottom plate by dispensing 50 μL/well (50,000 cells) using the Multidrop, and covered and incubated cells at 37° C. in a humidified tissue culture incubator for 4 hours (starvation).
Dosing was performed as follows: The compound mother plate was prepared by adding 16 μL of compound to 24 μL of DMSO to row A, odd-numbered columns of screen matrix plate. […] Intermediate plates were prepared in V-bottom plates by dispensing 98 μL of phenol red free, serum free IMDM media with Pen/Strep into all wells. 2 μL DMSO or 2 μL 10 mM staurosporine was added to appropriate control wells. At the end of four hours, the Bravo protocol 10 cpds vertical dose MSD 2 U-plates 96-well was used to: add 2 μL from the compound plate to the intermediate plate and dose cells with 7 μL from the intermediate plate. The cells were covered and incubated at 37° C. in a humidified tissue culture incubator for 90 min. The complete lysis buffer was prepared with AlphaLISA 5× Lysis Buffer supplemented with 1× protease inhibitor cocktail and kept on ice. The cells were pelleted by centrifuging plate at 2500×g for 5 min, 4° C. and media removed. Complete lysis buffer was added (14 μL/well). The cells were covered and shaken at 4° C. on a plate shaker at 600 rpm for 30 min and kept cold
The MSD protocol was preformed as follows: Tris Wash Buffer (2L) was prepared by diluting 10× stock of Tris Wash Buffer to 1× in water. Blocking Solution was prepared by dissolving 600 mg Blocker A in 20 mL 1× Trish Wash Buffer (per plate). The Antibody Dilution Buffer was prepared by mixing 1 mL Blocking solution and 2 mL 1× Trish Wash Buffer (per plate) and kept on ice. Blocking Solution was added (150 μL/well) to each MSD plate using a multichannel repeater pipette. The plate was covered and incubated at room temperature on a plate shaker at 700 rpm for hr. The Bio Tek protocol RL-96w-wash-MSD_stacker_fromC was used to wash plates 3× with 150 μL/well. Cells were pelleted by centrifuging lysate plates at 2500×g for 5 mins. The Bravo protocol was used (transfer 25 ul supernatants from V-96 to assay plate) to transfer 25 μL sample lysate per well to each MSD plate. The plates were covered and incubated at room temperature on a plate shaker at 700 rpm for hr. The Bio Tek protocol RL-96w-wash-MSD_stacker_fromC was used to wash plates 3× with 150 μL/well. The Detection Antibody Solution was prepared by diluting the 60 μL of the 50× antibody stock in 2.94 mL of the Antibody Dilution Buffer (per plate) and kept on ice. 25 μL/well of detection antibody solution was added to each MSD plate. The plates were covered and incubated at room temperature on a plate shaker at 700 rpm for 1 hr. The Read Buffer was prepared by diluting 5 mL of 4× stock of Read Buffer to 1× in 15 mL water (per plate).

T1 sequence (P10721 26-976 V560G/V654A): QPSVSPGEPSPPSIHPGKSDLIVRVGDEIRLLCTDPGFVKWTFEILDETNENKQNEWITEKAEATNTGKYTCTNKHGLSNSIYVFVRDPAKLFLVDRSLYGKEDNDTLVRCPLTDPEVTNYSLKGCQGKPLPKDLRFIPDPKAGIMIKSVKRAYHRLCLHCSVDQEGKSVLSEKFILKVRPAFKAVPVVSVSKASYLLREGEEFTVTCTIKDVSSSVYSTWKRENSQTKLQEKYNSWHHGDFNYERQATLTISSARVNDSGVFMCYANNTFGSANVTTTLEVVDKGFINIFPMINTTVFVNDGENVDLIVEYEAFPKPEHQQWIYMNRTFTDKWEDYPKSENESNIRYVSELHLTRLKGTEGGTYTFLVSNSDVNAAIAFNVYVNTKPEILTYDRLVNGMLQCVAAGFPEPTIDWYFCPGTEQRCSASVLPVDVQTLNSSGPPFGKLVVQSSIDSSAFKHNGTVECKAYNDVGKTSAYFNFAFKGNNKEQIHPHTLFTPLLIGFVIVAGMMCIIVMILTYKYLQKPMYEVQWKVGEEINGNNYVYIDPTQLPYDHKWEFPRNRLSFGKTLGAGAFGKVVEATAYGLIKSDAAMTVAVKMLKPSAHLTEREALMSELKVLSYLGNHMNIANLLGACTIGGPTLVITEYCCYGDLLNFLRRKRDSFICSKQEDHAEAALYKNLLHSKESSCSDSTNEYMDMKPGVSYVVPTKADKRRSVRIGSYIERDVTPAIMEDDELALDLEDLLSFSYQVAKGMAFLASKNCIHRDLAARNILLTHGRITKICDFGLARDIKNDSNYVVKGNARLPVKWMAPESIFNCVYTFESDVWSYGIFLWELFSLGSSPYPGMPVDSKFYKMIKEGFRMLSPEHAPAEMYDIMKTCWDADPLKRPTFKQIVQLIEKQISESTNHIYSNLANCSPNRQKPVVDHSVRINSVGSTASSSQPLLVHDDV

Compound | IC50 [nM]
CNc1cc(Nc2cc(N)nc(C(F)F)n2)ncc1C(=O)NCC#N [Compound 22, 6-((6-amino-2-(difluoromethyl)pyrimidin-4-yl)amino)-N-(cyanomethyl)-4-(methylamino)nicotinamide] | > 40
CNc1cc(Nc2cc(N)nc(C(F)F)n2)ncc1-c1cn(C)nn1 [Compound 17, 2-(difluoromethyl)-N4-(5-(1-methyl-1H-1,2,3-triazol-4-yl)-4-(methylamino)pyridin-2-yl)pyrimidine-4,6-diamine] | 10 to 40
CN1CC(n2cc(-c3cnc(Nc4cc(N)nc(C(F)F)n4)cc3OC[C@@H]3CCCO3)cn2)C1 [Compound 201, (S)-2-(difluoromethyl)-N4-(5-(1-(1-methylazetidin-3-yl)-1H-pyrazol-4-yl)-4-((tetrahydrofuran-2-yl)methoxy)pyridin-2-yl)pyrimidine-4,6-diamine] | 10 to 40
CNC(=O)c1cnc(Nc2cc(N)nc(CF)n2)cc1N[C@H]1CCOC1 [Compound 36, (S)-6-((6-amino-2-(fluoromethyl)pyrimidin-4-yl)amino)-N-methyl-4-((tetrahydrofuran-3-yl)amino)nicotinamide] | > 40
Cn1cc(-c2cnc(Nc3cc(N)nc(C(F)F)n3)cc2OCC2CC(O)C2)cn1 (centres unmarked) [Compound 145, 3-(((2-((6-amino-2-(difluoromethyl)pyrimidin-4-yl)amino)-5-(1-methyl-1H-pyrazol-4-yl)pyridin-4-yl)oxy)methyl)cyclobutan-1-ol] | 10 to 40
CNC(=O)c1cnc(Nc2cc(N)nc(CF)n2)cc1NC1CCC1 [Compound 14, 6-((6-amino-2-(fluoromethyl)pyrimidin-4-yl)amino)-4-(cyclobutylamino)-N-methylnicotinamide] | < 10
C[C@H](CF)Nc1cc(Nc2cc(N)nc(C(F)F)n2)ncc1C(=O)NC12CC(CO)(C1)C2 [Compound 189, (R)-6-((6-amino-2-(difluoromethyl)pyrimidin-4-yl)amino)-4-((1-fluoropropan-2-yl)amino)-N-(3-(hydroxymethyl)bicyclo[1.1.1]pentan-1-yl)nicotinamide] | 10 to 40
6-((6-amino-4-(difluoromethyl)pyridin-2-yl)amino)-4-(((1S,2R)-2-fluorocyclopropyl)amino)-N-methylnicotinamide [Compound 45] | 10 to 40
Cn1cc(-c2cnc(Nc3cc(N)nc(C(F)F)n3)cc2OC(F)(F)F)cn1 [Compound 95, 2-(difluoromethyl)-N4-(5-(1-methyl-1H-pyrazol-4-yl)-4-(trifluoromethoxy)pyridin-2-yl)pyrimidine-4,6-diamine] | < 10
COc1cc(Nc2cc(N)nc(C(F)F)n2)ncc1-c1cnn([C@@H]2CCNC2)c1 (single isomer, unassigned) [Compound 100, (R)-2-(difluoromethyl)-N4-(4-methoxy-5-(1-(pyrrolidin-3-yl)-1H-pyrazol-4-yl)pyridin-2-yl)pyrimidine-4,6-diamine or (S)-2-(difluoromethyl)-N4-(4-methoxy-5-(1-(pyrrolidin-3-yl)-1H-pyrazol-4-yl)pyridin-2-yl)pyrimidine-4,6-diamine] | 10 to 40
Nc1cc(Nc2cc(OC3CC3)c(-c3cnn(CCO)c3)cn2)nc(C(F)F)n1 [Compound 108, 2-(4-(6-((6-amino-2-(difluoromethyl)pyrimidin-4-yl)amino)-4-cyclopropoxypyridin-3-yl)-1H-pyrazol-1-yl)ethan-1-ol] | < 10
CNC(=O)c1cnc(Nc2cc(N)nc([C@H](C)F)n2)cc1NC(C)C [Compound 21, (S)-6-((6-amino-2-(1-fluoroethyl)pyrimidin-4-yl)amino)-4-(isopropylamino)-N-methylnicotinamide] | < 10
CC(C)NC(=O)c1cnc(Nc2cc(N)nc(C(F)F)n2)cc1NC1CC1 [Compound 63, 6-((6-amino-2-(difluoromethyl)pyrimidin-4-yl)amino)-4-(cyclopropylamino)-N-isopropylnicotinamide] | < 10
CNC(=O)c1cnc(Nc2cc(N)nc(C(F)F)n2)cc1NC1CCC1 [Compound 37, 6-((6-amino-2-(difluoromethyl)pyrimidin-4-yl)amino)-4-(cyclobutylamino)-N-methylnicotinamide] | < 10
CN(C)CCn1cc(-c2cnc(Nc3cc(N)nc(C(F)F)n3)cc2OC(F)F)cn1 [Compound 179, N4-(4-(difluoromethoxy)-5-(1-(2-(dimethylamino)ethyl)-1H-pyrazol-4-yl)pyridin-2-yl)-2-(difluoromethyl)pyrimidine-4,6-diamine] | < 10
COc1cc(Nc2cc(N)nc(C(F)F)n2)ncc1-c1cnn(C(F)F)c1 [Compound 70, 2-(difluoromethyl)-N4-(5-(1-(difluoromethyl)-1H-pyrazol-4-yl)-4-methoxypyridin-2-yl)pyrimidine-4,6-diamine] | < 10
Nc1cc(Nc2cc(OC3COC3)c(-c3cnn(C4CNC4)c3)cn2)nc(C(F)F)n1 [Compound 168, N4-(5-(1-(azetidin-3-yl)-1H-pyrazol-4-yl)-4-(oxetan-3-yloxy)pyridin-2-yl)-2-(difluoromethyl)pyrimidine-4,6-diamine formate] | > 40
CCNc1cc(Nc2cc(N)nc(C(F)F)n2)ncc1C(=O)NC [Compound 12, 6-((6-amino-2-(difluoromethyl)pyrimidin-4-yl)amino)-4-(ethylamino)-N-methylnicotinamide] | < 10
C[C@H](CF)Oc1cc(Nc2cc(N)nc(C(F)F)n2)ncc1-c1cnn(C)c1 (single isomer, unassigned) [Compound 88, (R)-2-(difluoromethyl)-N4-(4-((1-fluoropropan-2-yl)oxy)-5-(1-methyl-1H-pyrazol-4-yl)pyridin-2-yl)pyrimidine-4,6-diamine or (S)-2-(difluoromethyl)-N4-(4-((1-fluoropropan-2-yl)oxy)-5-(1-methyl-1H-pyrazol-4-yl)pyridin-2-yl)pyrimidine-4,6-diamine] | < 10
Nc1cc(Nc2cc(OC3CC3)c(-c3cnn(C[C@H]4CCN4)c3)cn2)nc(C(F)F)n1 (single isomer, unassigned) [Compound 161, (R)-N4-(5-(1-(azetidin-2-ylmethyl)-1H-pyrazol-4-yl)-4-cyclopropoxypyridin-2-yl)-2-(difluoromethyl)pyrimidine-4,6-diamine or (S)-N4-(5-(1-(azetidin-2-ylmethyl)-1H-pyrazol-4-yl)-4-cyclopropoxypyridin-2-yl)-2-(difluoromethyl)pyrimidine-4,6-diamine] | < 10
COc1cc(Nc2cc(N)nc(C(F)F)n2)ncc1-c1cnn(C2CC(O)C2)c1 (centres unmarked) [Compound 112, 3-(4-(6-((6-amino-2-(difluoromethyl)pyrimidin-4-yl)amino)-4-methoxypyridin-3-yl)-1H-pyrazol-1-yl)cyclobutan-1-ol] | 10 to 40
COc1cc(Nc2cc(N)nc(C(F)F)n2)ncc1-c1cnn(C2CCN(C)C2)c1 (centres unmarked) [Compound 140, 2-(difluoromethyl)-N4-(4-methoxy-5-(1-(1-methylpyrrolidin-3-yl)-1H-pyrazol-4-yl)pyridin-2-yl)pyrimidine-4,6-diamine] | < 10
Cn1cc(-c2cnc(Nc3cc(N)nc(C(F)F)n3)cc2OC2CCOC2)cn1 (centres unmarked) [Compound 106, 2-(difluoromethyl)-N4-(5-(1-methyl-1H-pyrazol-4-yl)-4-((tetrahydrofuran-3-yl)oxy)pyridin-2-yl)pyrimidine-4,6-diamine] | < 10
